According to patent US20120053211A1, “TREATMENT OF PANCREATIC CANCER” (ARDEA BIOSCIENCES, INC., priority 2009, published 2012):
Where “and” joins values, the source holds several entries; their conditions need not be identical. Identical values can stand only once.

System: Bx-PC3-e242 Xenograft
Assay: Bx-PC3-e242 Xenograft Study
Type: in vivo, female (nu/nu) mice
Set-up: key to Mean BW Nadir: — indicates no decrease in mean body weight was observed
Settings: for % TGI: D15, compared to Group 1; for % TGD: [(T − C)/C] × 100; for MTV (n) D54: day of TGD analysis, excludes animals reaching endpoint; for MTV (n) D15: day of TGI analysis, includes animals at endpoint; for T − C: difference of median TTE versus control group (Group 1); for Mean TTE / Median TTE: endpoint 1500 mm^3; for Individual TTE values: individual animals 1-9, endpoint 1500 mm^3, study duration 54 days; for Mean BW Nadir: lowest group mean body weight as % change from Day 1; for No. of NTR: non-treatment-related death; for No. of PR: partial regression, 9 animals
Procedure: In vivo activity of compound B: Bx-PC3-e242 Xenograft Study Bx-PC3-e242 cells were injected into 11-week-old female (nu/nu) mice. Tumors were allowed to reach 115.5-116.7 mm^3 (group mean tumor range); 63-196 mm^3 (Individual Tumor Range) in size (23 days) and mice were randomized into 6 groups of 9 animals (body weight range 18.0-25.2 g). Mice were treated by according to the chart below:
Tumors were measured with a caliper and tumor volumes calculated using the following formula:
where w=width and l=length in mm of a tumor. Tumor weight is estimated with the assumption that 1 mg is equivalent to 1 mm^3 of tumor volume.
Each animal was euthanized when the tumor reached endpoint size or at the end of the study, whichever comes first. The time to endpoint (TTE) for each mouse is calculated according to the following equation
The study endpoint was 1500 mm^3, with a study duration of 54 days.
Treatment may cause partial regression (PR) or complete regression (CR) of the tumor in an animal. In a PR response, the tumor volume is 50% or less of its Day 1 volume for three consecutive measurements during the course of the study.
Treatment outcome is evaluated by tumor growth delay (TGD), defined as the increase in the median time to endpoint (TTE) in a treatment group compared to the control group:
Response to treatment was also evaluated for tumor growth inhibition (TGI), defined as the difference between the median tumor volumes (MTVs) of treated and control mice.
Animals were weighed daily for the first five days of the study and then twice weekly. The mice are observed frequently for overt signs of any adverse, treatment-related side effects, and clinical signs of toxicity were recorded when observed.

[1] = Group 3: Cmpd B 25 mg/kg po qd × 14
[2] = Group 4: Cmpd B 6.25 mg/kg po bid × 14 first day 1 dose
[3] = Group 6: Cmpd B 12.5 mg/kg po, then 6.25 mg/kg po bid × 11 first day 1 dose (start on day 4)

## Cc1c(Nc2ccc(I)cc2F)c(NS(=O)(=O)C2CC2)cn(C)c1=O [Compound B, N-(4-(2-fluoro-4-iodophenylamino)-1,5-dimethyl-6-oxo-1,6-dihydropyridin-3-yl)cyclopropanesulfonamide]
D1, Group 3: Cmpd B 25 mg/kg po qd × 14
  Weekly Median Tumor Volume (number of animals in parentheses): 108 (9) mm^3
D1, Group 4: Cmpd B 6.25 mg/kg po bid × 14 first day 1 dose
  Weekly Median Tumor Volume (number of animals in parentheses): 108 (9) mm^3
D1, Group 5: Cmpd B 9 mg/kg po
  Weekly Median Tumor Volume (number of animals in parentheses): 108 (9) mm^3
D1, Group 6: Cmpd B 12.5 mg/kg po, then 6.25 mg/kg po bid × 11 first day 1 dose (start on day 4)
  Weekly Median Tumor Volume (number of animals in parentheses): 75 (9) mm^3
D5, Group 3: Cmpd B 25 mg/kg po qd × 14
  Weekly Median Tumor Volume (number of animals in parentheses): 75 (9) mm^3
D5, Group 4: Cmpd B 6.25 mg/kg po bid × 14 first day 1 dose
  Weekly Median Tumor Volume (number of animals in parentheses): 75 (9) mm^3
D5, Group 5: Cmpd B 9 mg/kg po
  Weekly Median Tumor Volume (number of animals in parentheses): 63 (9) mm^3
D5, Group 6: Cmpd B 12.5 mg/kg po, then 6.25 mg/kg po bid × 11 first day 1 dose (start on day 4)
  Weekly Median Tumor Volume (number of animals in parentheses): 75 (9) mm^3
D10, Group 3: Cmpd B 25 mg/kg po qd × 14
  Weekly Median Tumor Volume (number of animals in parentheses): 196 (9) mm^3
D10, Group 4: Cmpd B 6.25 mg/kg po bid × 14 first day 1 dose
  Weekly Median Tumor Volume (number of animals in parentheses): 196 (9) mm^3
D10, Group 5: Cmpd B 9 mg/kg po
  Weekly Median Tumor Volume (number of animals in parentheses): 172 (9) mm^3
D10, Group 6: Cmpd B 12.5 mg/kg po, then 6.25 mg/kg po bid × 11 first day 1 dose (start on day 4)
  Weekly Median Tumor Volume (number of animals in parentheses): 259 (9) mm^3
[1]
  % TGI: 82%
  % TGD: 62%
  MTV (n) D54: 1470 (1) mm^3
  MTV (n) D15: 196 (9) mm^3
  T − C: 12.1 days
  Mean TTE: 35.4 days
  Median TTE: 31.6 days
  Individual TTE values: 23.4 days and 28.3 days and 54.0 days and 50.1 days and 26.5 days and 31.6 days and 38.2 days and 40.2 days and 26.8 days
  Mean BW Nadir: —
  No. of NTR: 0
  No. of PR: 0
[2]
  % TGI: 89%
  % TGD: 91%
  MTV (n) D54: 486 (1) mm^3
  MTV (n) D15: 126 (9) mm^3
  T − C: 17.8 days
  Mean TTE: 40.7 days
  Median TTE: 37.3 days
  Mean BW Nadir: —
  No. of NTR: 1
  No. of PR: 0
Group 5: Cmpd B 9 mg/kg po
  % TGI: 89%
  % TGD: 94%
  MTV (n) D15: 126 (9) mm^3
  T − C: 18.3 days
  Mean TTE: 37.8 days
  Median TTE: 37.8 days
  Individual TTE values: 31.8 days and 42.8 days (2×) and 33.8 days and 41.7 days and 50.3 days and 30.5 days and 28.2 days and 37.8 days
  Mean BW Nadir: —
  No. of NTR: 0
  No. of PR: 0
[3]
  % TGI: 84%
  % TGD: 69%
  MTV (n) D15: 172 (9) mm^3
  T − C: 13.4 days
  Mean TTE: 34.9 days
  Median TTE: 32.9 days
  Individual TTE values: 32.9 days and 45.6 days and 35.7 days and 29.7 days and 33.3 days and 41.0 days and 31.1 days and 31.8 days and 32.8 days
  Mean BW Nadir: —
  No. of NTR: 0
  No. of PR: 0
D15, Group 3: Cmpd B 25 mg/kg po qd × 14
  Weekly Median Tumor Volume (number of animals in parentheses): 196 (9) mm^3
D15, Group 4: Cmpd B 6.25 mg/kg po bid × 14 first day 1 dose
  Weekly Median Tumor Volume (number of animals in parentheses): 126 (9) mm^3
D15, Group 5: Cmpd B 9 mg/kg po
  Weekly Median Tumor Volume (number of animals in parentheses): 126 (9) mm^3
D15, Group 6: Cmpd B 12.5 mg/kg po, then 6.25 mg/kg po bid × 11 first day 1 dose (start on day 4)
  Weekly Median Tumor Volume (number of animals in parentheses): 172 (9) mm^3
D22, Group 3: Cmpd B 25 mg/kg po qd × 14
  Weekly Median Tumor Volume (number of animals in parentheses): 446 (9) mm^3
D22, Group 4: Cmpd B 6.25 mg/kg po bid × 14 first day 1 dose
  Weekly Median Tumor Volume (number of animals in parentheses): 288 (9) mm^3
D22, Group 5: Cmpd B 9 mg/kg po
  Weekly Median Tumor Volume (number of animals in parentheses): 288 (9) mm^3
D22, Group 6: Cmpd B 12.5 mg/kg po, then 6.25 mg/kg po bid × 11 first day 1 dose (start on day 4)
  Weekly Median Tumor Volume (number of animals in parentheses): 550 (9) mm^3
D29, Group 3: Cmpd B 25 mg/kg po qd × 14
  Weekly Median Tumor Volume (number of animals in parentheses): 864 (5) mm^3
D29, Group 4: Cmpd B 6.25 mg/kg po bid × 14 first day 1 dose
  Weekly Median Tumor Volume (number of animals in parentheses): 509 (8) mm^3
D29, Group 5: Cmpd B 9 mg/kg po
  Weekly Median Tumor Volume (number of animals in parentheses): 566 (8) mm^3
D29, Group 6: Cmpd B 12.5 mg/kg po, then 6.25 mg/kg po bid × 11 first day 1 dose (start on day 4)
  Weekly Median Tumor Volume (number of animals in parentheses): 1008 (9) mm^3
D36, Group 3: Cmpd B 25 mg/kg po qd × 14
  Weekly Median Tumor Volume (number of animals in parentheses): 867 (4) mm^3
D36, Group 4: Cmpd B 6.25 mg/kg po bid × 14 first day 1 dose
  Weekly Median Tumor Volume (number of animals in parentheses): 600 (6) mm^3
D36, Group 5: Cmpd B 9 mg/kg po
  Weekly Median Tumor Volume (number of animals in parentheses): 600 (5) mm^3
D36, Group 6: Cmpd B 12.5 mg/kg po, then 6.25 mg/kg po bid × 11 first day 1 dose (start on day 4)
  Weekly Median Tumor Volume (number of animals in parentheses): 900 (2) mm^3
D43, Group 3: Cmpd B 25 mg/kg po qd × 14
  Weekly Median Tumor Volume (number of animals in parentheses): 1015 (2) mm^3
D43, Group 4: Cmpd B 6.25 mg/kg po bid × 14 first day 1 dose
  Weekly Median Tumor Volume (number of animals in parentheses): 1268 (3) mm^3
D43, Group 5: Cmpd B 9 mg/kg po
  Weekly Median Tumor Volume (number of animals in parentheses): 1008 (1) mm^3
D43, Group 6: Cmpd B 12.5 mg/kg po, then 6.25 mg/kg po bid × 11 first day 1 dose (start on day 4)
  Weekly Median Tumor Volume (number of animals in parentheses): 1470 (1) mm^3
D50, Group 3: Cmpd B 25 mg/kg po qd × 14
  Weekly Median Tumor Volume (number of animals in parentheses): 1327 (2) mm^3
D50, Group 4: Cmpd B 6.25 mg/kg po bid × 14 first day 1 dose
  Weekly Median Tumor Volume (number of animals in parentheses): 976 (2) mm^3
D50, Group 5: Cmpd B 9 mg/kg po
  Weekly Median Tumor Volume (number of animals in parentheses): 1470 (1) mm^3
* = non-treatment-related death, Group 4: Cmpd B 6.25 mg/kg po bid × 14 first day 1 dose
  Individual TTE values: 54.0 days and 51.4 days and 50.0 days and 35.1 days and 36.9 days and *40.0 days and 29.0 days and 37.7 days and 31.5 days
N = 1, Group 5: Cmpd B 9 mg/kg po
  Mean TV(n): 1913 mm^3
N = 2, Group 3: Cmpd B 25 mg/kg po qd × 14
  Mean TV(n): 1635 mm^3
N = 2, Group 4: Cmpd B 6.25 mg/kg po bid × 14 first day 1 dose
  Mean TV(n): 1076 mm^3
